Data as given in patent US6444616B1, “Substituted p-trifluoromethylphenyluracils” (Bayer Aktiengesellschaft, priority 1999, dated 2002).

Tests used:
Cyperus = assay: Pre-emergence test; type: in vivo; conditions: rated after 3 weeks, application rate not stated, 0%=no effect, 100%=total destruction
Description: (§1) Solvent: 5 parts by weight of acetone
(§2) Emulsifier: 1 part by weight of alkylaryl polyglycol ether
(§3) To produce a suitable preparation of active compound, 1 part by weight of active compound is mixed with the stated amount of solvent, the stated amount of emulsifier is added and the concentrate is diluted with water to the desired concentration.
(§4) Seeds of the test plants are sown in normal soil. After about 24 hours, the soil is sprayed with the preparation of active compound in such a way as to apply the particular amounts of active compound desired per unit area. The concentration of the spray liquor is chosen so that the particular amounts of active compound desired are applied in 1000 l of water/ha.
(§5) After 3 weeks, the degree of damage to plants is rated in % damage in comparison to the development of the untreated control.
(§6) 0%=no effect (like untreated control)

Sinapis [1] = assay: Pre-emergence test; type: in vivo; conditions: rated after 3 weeks, application rate not stated
Description: as §1, §2, §3, §4, §5, §6

Matricaria = assay: Postemergence test; type: in vivo; conditions: plants 5-15 cm sprayed, rated after 3 weeks, application rate not stated
Description: as §1, §2
(§7) To produce an effective preparation of active compound, 1 part by weight of active compound is mixed with the stated amount of solvent, the stated amount of emulsifier is added and the concentrate is diluted with water to the desired concentration.
(§8) Test plants which have a height of 5-15 cm are sprayed with the preparation of active compound in such a way as to apply the particular amounts of active compound desired per unit area. The concentration of the spray liquor is chosen so that the particular amounts of active compound desired are applied in 1000 l of water/ha.
(§9) After 3 weeks, the degree of damage to the plants is rated in % damage in comparison to the development of the untreated control.
as §6

Ipomoea = assay: Postemergence test; type: in vivo; conditions: plants 5-15 cm sprayed, rated after 3 weeks, application rate not stated
Description: as §1, §2, §7, §8, §9, §6

polygonum = assay: Postemergence test; type: in vivo; conditions: plants 5-15 cm sprayed, rated after 3 weeks, application rate not stated
Description: as §1, §2, §7, §8, §9, §6

Solanum = assay: Postemergence test; type: in vivo; conditions: plants 5-15 cm sprayed, rated after 3 weeks, application rate not stated
Description: as §1, §2, §7, §8, §9, §6

datura = assay: Postemergence test; type: in vivo; conditions: plants 5-15 cm sprayed, rated after 3 weeks, application rate not stated
Description: as §1, §2, §7, §8, §9, §6

Sinapis [2] = assay: Postemergence test; type: in vivo; conditions: plants 5-15 cm sprayed, rated after 3 weeks, application rate not stated
Description: as §1, §2, §7, §8, §9, §6

Abutilon = assay: Postemergence test; type: in vivo; conditions: plants 5-15 cm sprayed, rated after 3 weeks, application rate not stated
Description: as §1, §2, §7, §8, §9, §6

| SMILES | degree of damage to plants, % damage vs untreated control (Cyperus) | degree of damage to plants, % damage vs untreated control (Sinapis [1]) | melting point | degree of damage to the plants, % damage vs untreated control (Matricaria) | degree of damage to the plants, % damage vs untreated control (Ipomoea) | degree of damage to the plants, % damage vs untreated control (polygonum) | degree of damage to the plants, % damage vs untreated control (Solanum) | degree of damage to the plants, % damage vs untreated control (datura) | degree of damage to the plants, % damage vs untreated control (Sinapis [2]) | degree of damage to the plants, % damage vs untreated control (Abutilon) |
| --- | --- | --- | --- | --- | --- | --- | --- | --- | --- | --- |
| Cn1c(C(F)(F)F)cc(=O)n(-c2cc(NS(C)(=O)=O)c(C(F)(F)F)cc2F)c1=O [Example 5] | 80% | 100% | 163 °C | 100% | 100% | 95% | 100% | 100% | 100% | 100% |
| Cn1c(C(F)(F)F)cc(=O)n(-c2cc(F)c(C(F)(F)F)cc2F)c1=O [Example 2, 1-(2,5-difluoro-4-trifluoromethyl-phenyl)-3,6-dihydro-2,6-dioxo-3-methyl-4-trifluoromethyl-1 (2H)-pyrimidine] | 80% | 100% | 110 °C | 100% | 100% | 95% | 100% | 100% | 100% | 100% |
| O=c1cc(C(F)(F)F)[nH]c(=O)n1-c1cc(F)c(C(F)(F)F)cc1F [Example 1, 1-(2,5-difluoro4-trifluoromethyl-phenyl)-3,6-dihydro-2,6-dioxo-4-trifluoromethyl-1(2H)-pyrimidine] |  |  | 217 °C |  |  |  |  |  |  |  |
| Nn1c(C(F)(F)F)cc(=O)n(-c2cc(F)c(C(F)(F)F)cc2F)c1=O [Example 3, 3-amino-1-(2,5-difluoro-4-trifluoromethyl-phenyl)-3,6-dihydro-2,6-dioxo-4-trifluoromethyl-1 (2H)-pyrimidine] |  |  | 157 °C |  |  |  |  |  |  |  |
| CS(=O)(=O)Nc1cc(-n2c(=O)cc(C(F)(F)F)[nH]c2=O)c(F)cc1C(F)(F)F [Example 4] | 80% | 100% | 227 °C | 100% | 100% | 95% | 100% | 100% | 100% | 100% |
